The subject of the experiment is bitter taste of KCl. Description: KCl Latin Square-2AFC taste test, macaroni and cheese (chew and spit). Conditions: KCl 5.7% in cheese powder (0.34% in final prepared food product); for # of panelists discerning decrease in bitter taste/# of panelists tested: versus KCl standard. In kind it is in vivo, humans. As for the experimental part: The taste test panelists used in the following examples were screened based upon and selected for their ability to perceive the bitter taste associated with potassium chloride. Only panelists capable of perceiving bitter taste participated in the following taste tests.
The effect of the test compounds on the perception of the bitter taste of KCl in prepared food products in humans was evaluated using a “chew and spit” test using a Latin Square-2AFC testing method as follows.
Edible KCl food products (“KCl test food product”) were prepared according to the following instructions. 6 cups water were boiled in stainless steel pot to a ‘rolling’ boil. Once a rolling boil was achieved, 166.5 grams of pasta were added to the boiling water. The pasta was stirred briefly to prevent the pasta from sticking to the pot. The pasta was boiled for 8.5 minutes and drained in a stainless steel colander. The pasta was shaken (approximately 15 times back and forth and twice up and down) to remove excess water. The drained pasta was returned to the stainless steel pot, and 56 grams (4 tablespoons) Land O'Lakes™ unsalted butter was added to the hot pasta. When the unsalted butter was half melted, 39.5 grams cheese powder (containing the KCl) was added in the center of the pasta. Separately, test compound was diluted in 1 ml of propylene glycol (PG; alternatively the test compound may also be diluted in a milk stock solution or a butter oil stock solution) and the resulting solution added to 99 ml of milk. 63 ml of the PG/milk solution was poured around cheese powder and gently folded into the pasta with a stainless steel spoon in order to avoid cheese clumping on spoon. KCl standards were similarly prepared by adding milk without any test compound.
The panelists tasted portions by chewing and spitting. In order to eliminate any effects of sample order, a complete Latin Square design was employed so that each possible order of sample presentation was utilized across subjects. Each sample was tested in several discrete taste test experiments. […]

We go through one molecule from patent US9706790B2, “Compounds, compositions, and methods for reducing or eliminating bitter taste” (CHROMOCELL CORPORATION, priority 2011, dated 2017).

With `C/C(=C\CO)CCCC(C)CCCC(C)CCCC(C)C` (stereo not drawn) [Compound 5], the “Conc. at Which At Least 50% of Panelists Discerned Decrease in Bitter Taste” value is on record as 10 ppm. For the same molecule, the “# of panelists discerning decrease in bitter taste/# of panelists tested” value (compound at 10 ppm) is recorded as 10 (28/50). Further, the “# of panelists discerning decrease in bitter taste/# of panelists tested” value (compound at 20 ppm) is on record as 20 (20/49).
